In patent publication US20250034254A1, “USE OF ANTI-PD-1 ANTIBODY IN COMBINATION WITH CHEMOTHERAPY IN TREATING ESOPHAGEAL CANCER” (SHANGHAI JUNSHI BIOSCIENCES CO., LTD., priority 2021, published 2025):

Assays:
[1] = Phase III clinical study of toripalimab (JS001) or placebo in combination with first-line chemotherapy: safety (SS population); settings: human, in vivo
Excerpt: (§1) This is a randomized, double-blind, placebo-controlled, multicenter, phase III clinical study evaluating the efficacy and safety of toripalimab (JS001) or placebo in combination with first-line chemotherapy in patients with advanced or metastatic esophageal squamous cell carcinoma that are not previously treated with systemic chemotherapy and exploring the population with optimal biomarker prediction.
(§2) Approximately 514 patients with advanced or metastatic esophageal squamous cell carcinoma were randomized into two groups in a ratio of 1:1, with the treatment group receiving toripalimab in combination with first-line chemotherapy and the control group receiving placebo in combination with first-line chemotherapy. The patients were stratified by ECOG score (0 vs 1) and previous radiotherapy (present vs absence).
(§3) After randomization, the patients were subject to combination chemotherapy, receiving toripalimab or placebo+first-line chemotherapy for up to 6 cycles. After that, the patients were subject to maintenance therapy, continuously receiving toripalimab or placebo treatment until disease progression, intolerable toxicity, withdrawal from the study or up to 2 years.
(§4) Toripalimab 240 mg/placebo was administered by intravenous infusion once every three weeks (Q3W) in treatment cycles of 21 days. Treatment continued until the patients met the discontinuation criteria, i.e., recorded disease progression, unacceptable AE, investigator-assessed unsuitability for continued treatment, withdrawal of informed consent, 2 years of JS001 treatment or other reasons as specified in the protocol.
(§5) Intent-to-Treat (ITT) set: including all randomized patients during the primary study period. This analysis set was used as the primary analysis set for efficacy analysis. Per protocol set (PPS): including all ITT population having valid baseline information without major violation to the protocol that may affect the efficacy analysis. The PPS population was determined based on actual protocol violations before database lock of the study. The PPS population was used for sensitivity analysis of the primary efficacy endpoints as well as part of the secondary efficacy endpoints. Safety analysis set (SS): including all patients who received at least one dose of the study drug (JS001/placebo/chemotherapeutic agent).
All safety analyses were based on the SS population (514 patients), including 257 patients in the treatment group and 257 patients in the control group. Both groups were sufficiently exposed to JS001+chemotherapy treatment or placebo+chemotherapy treatment. The primary safety analysis results based on the SS population in the double-blind phase of the primary study are as follows: […]

[2] = system: patients with advanced or metastatic esophageal squamous cell carcinoma; assay: Phase III clinical study of toripalimab (JS001) or placebo in combination with first-line chemotherapy: efficacy (ITT, RECIST 1.1); type: in vivo, human; settings: for Objective response rate (ORR) / Objective response rate (ORR), number of subjects: RECIST 1.1; for DCR inter-group difference (95% CI) / ORR inter-group difference (95% CI): JS001 + TP versus Placebo + TP; for Duration of response (DOR), median: patients with BOR of CR or PR
Excerpt: as §1
Eligible subjects shall meet the following criteria: (1) aged between 18 and 75 years; (2) histologically or pathologically confirmed metastatic or relapsed esophageal squamous cell carcinoma; (3) previously not treated for relapsed or metastatic ESCC; (4) at least one measurable lesion (according to RECIST 1.1); (5) an ECOG score of 0 or 1; (6) normal organ functions.
as §2, §3, §4
Toripalimab injection 240 mg/placebo was administered by intravenous infusion Q3W in treatment cycles of 21 days. Treatment continued until the patient met the discontinuation criteria, i.e., recorded disease progression, unacceptable AEs, investigator-assessed unsuitability for continued treatment, withdrawal of informed consent, 2 years of JS001 treatment or other reasons as specified in the protocol.
The patients received JS001/placebo+first-line chemotherapy during the combination chemotherapy period (up to 6 cycles). After that, the patients were subject to maintenance monotherapy, continuously receiving JS001/placebo treatment until disease progression, intolerable toxicity, withdrawal from the study or up to 2 years.
as §5
Unless otherwise specified, the efficacy analysis was based on the ITT set by treatment. […]

[3] = BICR-assessed, listed as treatment group
[4] = ITT, as of Mar. 22, 2021, median follow-up 7.343 months
[5] = ITT, assessed by the investigator

Substance: JS001 + TP: toripalimab 240 mg Q3W in combination with first-line chemotherapy TP (paclitaxel 175 mg/m^2 + cisplatin 75 mg/m^2)
- SAE: anemia [1]: 1.2%
- SAE: asthenia [1]: 1.2%
- SAE: bone marrow depression [1]: 1.2%
- SAE: decreased leukocyte count [1]: 2.3%
- SAE: decreased neutrophil count [1]: 1.6%
- SAE: decreased platelet count [1]: 1.6%
- SAE: dysphagia [1]: 1.2%
- SAE: infectious pneumonitis [1]: 5.1%
- SAE: vomiting [1]: 8.9%
- TEAE: alopecia [1]: 35.4%
- TEAE: anemia [1]: 77.0%
- TEAE: asthenia [1]: 41.6%
- TEAE: constipation [1]: 24.1%
- TEAE: decreased appetite [1]: 39.3%
- TEAE: decreased leukocyte count [1]: 67.7%
- TEAE: decreased neutrophil count [1]: 66.9%
- TEAE: decreased platelet count [1]: 28.4%
- TEAE: diarrhea [1]: 23.0%
- TEAE: nausea [1]: 42.8%
- TEAE: vomiting [1]: 40.1%
- TEAE: weight loss [1]: 28.8%
- immune-related adverse events (irAEs), % of patients [1]: 37%
- immune-related adverse events (irAEs), number of patients [1]: 95
- irAE resulting in death [1]: no irAE resulting in death was reported
- irAEs of grade 3 or higher, % of subjects [1]: 6.6%
- irAEs of grade 3 or higher, number of subjects [1]: 17
- proportion of SAEs of grade 3 or higher as per CTCAE [1]: 30.0%
- proportion of TEAEs of grade 3 or higher as per CTCAE [1]: 73.2%
- proportion of patients who experienced at least 1 TEAE [1]: 99.2%
- proportion of treatment-emerged SAEs [1]: 36.2%
- 6-month DOR ([2]; BICR-assessed): 47.4%
- 12-month DOR (1-year DOR rate) ([2]; BICR-assessed): 28.2%
- Best overall response: Complete response (CR) ([2]; BICR-assessed): (11.7) %
- Best overall response: Complete response (CR), number of subjects ([2]; BICR-assessed): 30
- Best overall response: Not applicable, number of subjects ([2]; BICR-assessed): 0
- Best overall response: Not evaluable (NE), number of subjects ([2]; BICR-assessed): 0
- Best overall response: Partial response (PR) ([2]; BICR-assessed): (57.6) %
- Best overall response: Partial response (PR), number of subjects ([2]; BICR-assessed): 148
- Best overall response: Progressive disease (PD) ([2]; BICR-assessed): (7.0) %
- Best overall response: Progressive disease (PD), number of subjects ([2]; BICR-assessed): 18
- Best overall response: Stable disease (SD), number of subjects ([2]; BICR-assessed): 51
- Best overall response: non-CR/non-PD ([2]; BICR-assessed): (0.4) %
- Best overall response: non-CR/non-PD, number of subjects ([2]; BICR-assessed): 1
- DOR HR (95% CI) ([2]; BICR-assessed): 0.58 (0.412, 0.810), P = 0.00136
- Disease control rate (DCR) ([2]; BICR-assessed): 89.1%
- Disease control rate (DCR), number of subjects ([2]; BICR-assessed): 229
- Objective response rate (ORR) ([2]; BICR-assessed): 69.3%
- Objective response rate (ORR), number of subjects ([2]; BICR-assessed): 178
- DCR inter-group difference (95% CI) ([2]; BICR-assessed): 7.1 (1.1, 13.1) %
- ORR inter-group difference (95% CI) ([2]; BICR-assessed): 17.2 (9.0, 25.4) %
- ORR inter-group difference (95% CI) [2, 3]: 17.2%
- DOR HR (95% CI) [2, 3]: 0.58
- Duration of response (DOR), median ([2]; BICR-assessed): 5.6 month
- PFS subpopulation analysis ([2]; BIRC, ECOG score, previous radiotherapy, disease stage, PD-L1 expression, 11q13, TMB subpopulations): superiority in PFS
- OS subpopulation analysis ([2]; ECOG score, previous radiotherapy, disease stage, PD-L1 expression, 11q13, TMB subpopulations): superiority in OS
- OS hazard ratio (HR), treatment vs control group ([2]; ITT population): 0.58
- median OS ([2]; ITT population): 17.0 months
- prolongation of median OS versus chemotherapy ([2]; ITT population): 6 months
- reduction of death hazard versus chemotherapy ([2]; ITT population): 42%
- deaths reported, % of patients [2, 4]: 27.2%
- deaths reported, number of patients [2, 4]: 70
- 1-year PFS rate ([2]; ITT, assessed by BIRC): 27.8%
- PFS hazard ratio (HR), treatment vs control group ([2]; ITT, assessed by BIRC): 0.58
- reduction of progression or death hazard versus chemotherapy ([2]; ITT, assessed by BIRC): 42%
- median PFS ([2]; ITT, assessed by BIRC based on RECIST 1.1): 5.7 months
- PFS hazard ratio (HR), treatment vs control group [2, 5]: 0.58
- reduction of progression or death hazard versus chemotherapy [2, 5]: 42%
- median PFS ([2]; ITT, assessed by the investigator based on RECIST 1.1): 7.0 months
- 6-month DOR ([2]; Investigator-assessed): 55.6%
- 12-month DOR ([2]; Investigator-assessed): 30.9%
- Best overall response: Complete response (CR) ([2]; Investigator-assessed): (5.1) %
- Best overall response: Complete response (CR), number of subjects ([2]; Investigator-assessed): 13
- Best overall response: Not evaluable (NE), number of subjects ([2]; Investigator-assessed): 0
- Best overall response: Partial response (PR) ([2]; Investigator-assessed): (67.3) %
- Best overall response: Partial response (PR), number of subjects ([2]; Investigator-assessed): 173
- Best overall response: Progressive disease (PD) ([2]; Investigator-assessed): (3.9) %
- Best overall response: Progressive disease (PD), number of subjects ([2]; Investigator-assessed): 10
- Best overall response: Stable disease (SD), number of subjects ([2]; Investigator-assessed): 52
- DOR HR (95% CI) ([2]; Investigator-assessed): 0.50 (0.359, 0.684), P = 0.00001
- Disease control rate (DCR) ([2]; Investigator-assessed): 92.6%
- Disease control rate (DCR), number of subjects ([2]; Investigator-assessed): 238
- Objective response rate (ORR) ([2]; Investigator-assessed): 72.4%
- Objective response rate (ORR), number of subjects ([2]; Investigator-assessed): 186
- DCR inter-group difference (95% CI) ([2]; Investigator-assessed): 5.5 (0.3, 10.7) %
- ORR inter-group difference (95% CI) ([2]; Investigator-assessed): 14.1 (6.0, 22.2) %
- ORR inter-group difference (95% CI) ([2]; Investigator-assessed, listed as treatment group): 14%
- Duration of response (DOR), median ([2]; Investigator-assessed): 4.2 month
- prolongation of DOR over the control group ([2]; assessed by BIRC): 1.4 months
